Experimental data as given in the NIST ThermoML archive (doi:10.1016/j.jct.2004.10.005).

Test: molar heat capacity at saturation pressure
Conditions: Vacuum adiabatic calorimetry

BrC12CC3CC(CC(C3)C1)C2 [1-bromotricyclo[3.3.1.1(3,7)]decane]
Conditions	molar heat capacity [J/K/mol]
5.98 K, Crystal 4	1.102
6.34 K, Crystal 4	1.301
6.73 K, Crystal 4	1.56
7.05 K, Crystal 4	1.776
7.4 K, Crystal 4	2.048
7.78 K, Crystal 4	2.391
8.34 K, Crystal 4	2.94
8.96 K, Crystal 4	3.558
9.37 K, Crystal 4	4.013
9.8 K, Crystal 4	4.489
10.27 K, Crystal 4	5.11
10.71 K, Crystal 4	5.643
11.11 K, Crystal 4	6.154
11.51 K, Crystal 4	6.677
11.92 K, Crystal 4	7.254
12.35 K, Crystal 4	7.849
12.82 K, Crystal 4	8.366
13.25 K, Crystal 4	9.058
14.09 K, Crystal 4	10.21
14.56 K, Crystal 4	10.84
15 K, Crystal 4	11.48
15.42 K, Crystal 4	12.01
15.87 K, Crystal 4	12.79
16.34 K, Crystal 4	13.48
16.79 K, Crystal 4	14.11
17.32 K, Crystal 4	14.74
17.91 K, Crystal 4	15.58
18.48 K, Crystal 4	16.3
19.01 K, Crystal 4	17.14
19.61 K, Crystal 4	17.85
20.29 K, Crystal 4	18.72
20.93 K, Crystal 4	19.58
21.63 K, Crystal 4	20.43
22.39 K, Crystal 4	21.39
23.1 K, Crystal 4	22.23
23.9 K, Crystal 4	23.12
24.76 K, Crystal 4	24.04
25.69 K, Crystal 4	25.07
26.66 K, Crystal 4	26.14
27.58 K, Crystal 4	27.16
28.56 K, Crystal 4	28.01
29.52 K, Crystal 4	28.99
29.57 K, Crystal 4	29.29
30.13 K, Crystal 4	29.69
30.42 K, Crystal 4	30.4
30.62 K, Crystal 4	30.95
30.71 K, Crystal 4	31.25
31.02 K, Crystal 4	33.37
31.27 K, Crystal 3	31.25
31.56 K, Crystal 3	31.24
31.81 K, Crystal 3	31.34
32.25 K, Crystal 3	31.61
33.06 K, Crystal 3	32.35
33.28 K, Crystal 3	32.47
34.66 K, Crystal 3	33.75
36.35 K, Crystal 3	35.07
38.12 K, Crystal 3	36.42
39.98 K, Crystal 3	37.78
41.9 K, Crystal 3	39.06
43.96 K, Crystal 3	40.39
46.12 K, Crystal 3	41.85
48.32 K, Crystal 3	43.17
50.74 K, Crystal 3	44.52
53.31 K, Crystal 3	45.98
55.82 K, Crystal 3	47.36
58.21 K, Crystal 3	48.67
60.62 K, Crystal 3	50.13
63.03 K, Crystal 3	51.45
65.43 K, Crystal 3	52.6
67.86 K, Crystal 3	54.08
70.3 K, Crystal 3	55.24
72.8 K, Crystal 3	56.68
75.3 K, Crystal 3	57.96
77.74 K, Crystal 3	59.21
80.19 K, Crystal 3	60.74
82.69 K, Crystal 3	61.79
85.17 K, Crystal 3	63.27
87.66 K, Crystal 3	64.58
90.17 K, Crystal 3	65.86
92.68 K, Crystal 3	67.39
95.2 K, Crystal 3	68.53
97.74 K, Crystal 3	70.12
100.3 K, Crystal 3	71.52
100.96 K, Crystal 3	71.76
102.83 K, Crystal 3	72.73
104.15 K, Crystal 3	73.63
105.3 K, Crystal 3	74.09
107.32 K, Crystal 3	75.22
110.3 K, Crystal 3	76.73
113.21 K, Crystal 3	78.44
116.14 K, Crystal 3	79.82
119.1 K, Crystal 3	81.75
122.01 K, Crystal 3	83.28
124.86 K, Crystal 3	84.61
127.91 K, Crystal 3	86.56
131.28 K, Crystal 3	88.26
134.63 K, Crystal 3	90.38
137.93 K, Crystal 3	91.96
141.17 K, Crystal 3	93.89
144.35 K, Crystal 3	95.86
147.49 K, Crystal 3	97.33
150.64 K, Crystal 3	99.37
153.81 K, Crystal 3	101.4
156.99 K, Crystal 3	103
160.16 K, Crystal 3	104.9
160.53 K, Crystal 3	105.5
163.7 K, Crystal 3	107.4
166.86 K, Crystal 3	109.4
169.99 K, Crystal 3	111.2
173.09 K, Crystal 3	113.3
176.19 K, Crystal 3	115.1
179.34 K, Crystal 3	117.2
182.56 K, Crystal 3	119.4
185.78 K, Crystal 3	121.5
189.07 K, Crystal 3	123.6
192.43 K, Crystal 3	126.2
195.86 K, Crystal 3	128.7
199.38 K, Crystal 3	130.9
202.85 K, Crystal 3	133.7
206.29 K, Crystal 3	135.9
209.76 K, Crystal 3	138.8
213.19 K, Crystal 3	141.4
216.58 K, Crystal 3	143.7
220.01 K, Crystal 3	146.7
223.4 K, Crystal 3	149.2
226.82 K, Crystal 3	152.2
230.32 K, Crystal 3	155.2
230.97 K, Crystal 3	155.8
234.32 K, Crystal 3	158.8
237.7 K, Crystal 3	162.3
241 K, Crystal 3	166.2
241.09 K, Crystal 3	165.9
244.38 K, Crystal 3	169.3
244.57 K, Crystal 3	169.7
247.65 K, Crystal 3	173
248.16 K, Crystal 3	173.6
251.11 K, Crystal 3	177.1
251.71 K, Crystal 3	177.8
254.61 K, Crystal 3	181.5
255.15 K, Crystal 3	182.1
257.99 K, Crystal 3	186.2
258.5 K, Crystal 3	187.1
261.32 K, Crystal 3	192.1
261.93 K, Crystal 3	193.3
264.6 K, Crystal 3	198.2
265.32 K, Crystal 3	200.1
267.83 K, Crystal 3	205.5
268.59 K, Crystal 3	207.2
271.04 K, Crystal 3	214.7
271.85 K, Crystal 3	217.2
274.2 K, Crystal 3	227.6
275.09 K, Crystal 3	231.6
277.23 K, Crystal 3	248.5
278.12 K, Crystal 3	258.4
279.76 K, Crystal 3	284.9
280.08 K, Crystal 3	308.9
280.17 K, Crystal 3	297.9
280.56 K, Crystal 3	309.4
280.94 K, Crystal 3	336.3
281.3 K, Crystal 3	377.6
281.63 K, Crystal 3	422.2
281.93 K, Crystal 3	523.4
282.18 K, Crystal 3	643.2
282.41 K, Crystal 2	586.3
282.52 K, Crystal 2	470.3
282.69 K, Crystal 2	384.2
283.04 K, Crystal 2	278.4
283.48 K, Crystal 2	248.5
283.93 K, Crystal 2	226.3
284.68 K, Crystal 2	219.3
285.09 K, Crystal 2	222.5
286.24 K, Crystal 2	214.2
288.26 K, Crystal 2	209.5
290.59 K, Crystal 2	211.1
291.43 K, Crystal 2	211.7
293.15 K, Crystal 2	212.4
294.62 K, Crystal 2	213.4
295.8 K, Crystal 2	213.7
298.44 K, Crystal 2	215.6
298.96 K, Crystal 2	215.9
301.06 K, Crystal 2	217.3
303.6 K, Crystal 2	220.7
306.07 K, Crystal 2	236.7
308.13 K, Crystal 2	437.7
312.39 K, Crystal 1	249
314.9 K, Crystal 1	250.6
314.98 K, Crystal 1	251.1
317.39 K, Crystal 1	253.5
317.63 K, Crystal 1	254
